Results: ChEMBL document CHEMBL1157706, “Inhibitors of human tyrosyl-DNA phospodiesterase (hTdp1) developed by virtual screening using ligand-based pharmacophores” (Bioorg Med Chem, 2010)

Assays:
[1] = molecular target: T1, Tyrosyl-DNA phosphodiesterase 1 (Homo sapiens, UniProt Q9NUW8); test: Inhibition of human tyrosyl-DNA phosphodiesterase 1 after 30 mins by alpha high throughput screening assay in presence of 0.05% Tween-20
[2] = molecular target: T1, Tyrosyl-DNA phosphodiesterase 1; test: Inhibition of human tyrosyl-DNA phosphodiesterase 1 after 30 mins by alpha high throughput screening assay in presence of 0.01% Tween-20
[3] = molecular target: T1, Tyrosyl-DNA phosphodiesterase 1; test: Inhibition of human tyrosyl-DNA phosphodiesterase 1 after 30 mins by alpha high throughput screening assay

T1 sequence (Q9NUW8 whole entry): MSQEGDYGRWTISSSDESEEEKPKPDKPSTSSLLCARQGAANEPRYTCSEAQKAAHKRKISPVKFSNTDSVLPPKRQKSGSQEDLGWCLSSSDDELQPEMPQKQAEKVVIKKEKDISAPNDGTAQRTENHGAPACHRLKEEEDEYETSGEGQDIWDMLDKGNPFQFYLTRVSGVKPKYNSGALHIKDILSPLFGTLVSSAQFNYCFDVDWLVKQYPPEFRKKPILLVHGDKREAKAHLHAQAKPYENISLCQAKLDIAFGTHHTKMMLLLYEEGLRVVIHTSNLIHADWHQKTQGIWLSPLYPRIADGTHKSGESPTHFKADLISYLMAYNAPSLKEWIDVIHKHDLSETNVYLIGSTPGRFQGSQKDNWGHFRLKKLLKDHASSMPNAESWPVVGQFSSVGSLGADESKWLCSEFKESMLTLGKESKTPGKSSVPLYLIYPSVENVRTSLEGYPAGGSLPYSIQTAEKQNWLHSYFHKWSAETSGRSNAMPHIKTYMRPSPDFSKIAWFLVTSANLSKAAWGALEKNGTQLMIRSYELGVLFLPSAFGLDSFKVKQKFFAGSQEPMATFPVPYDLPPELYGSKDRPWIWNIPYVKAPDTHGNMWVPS

SMILES	IC50 [1]	IC50 [2]	IC50 [3]
COC(=O)c1ccc(COc2ccc(C3Nc4ccccc4C(=O)N3C3CC3)cc2OC)cc1 (stereo not drawn)	89.1 µM	44.7 µM	–
O=c1c2ccccc2c2ccccc2c(=O)n1-c1cccc2c1ccc1c3ccccc3ccc21	–	–	5 µM
Cc1cc(C)nc(N/C=C(\C#N)C(=O)c2cccc(CSc3ccccc3)c2)n1	79.4 µM	100 µM	–
Fc1cccc(Cl)c1/C=N/N=C1c2ccccc2-c2ccccc21	–	–	14 µM
COc1cc(/C=C/C(=O)OC(C(=O)N2CCCCC2)c2ccccc2)ccc1O (stereo not drawn)	70.8 µM	79.4 µM	–

Further lines, with some results ahead:

IC50 [1]	IC50 [2]	SMILES	IC50 [3]
44.7 µM	31.6 µM	O=C(/C=C/c1ccc(C(F)(F)F)cc1)OC(C(=O)NC1CC1)c1ccccc1 (stereo not drawn)	–
22.4 µM	14.1 µM	CCOc1cccc2cc(C(=O)OCC(=O)c3c[nH]c4ccccc34)c(=O)oc12	–
50.1 µM	44.7 µM	CCOC(=O)c1sc(N2C(=O)c3oc4ccc(F)cc4c(=O)c3C2c2ccc(C)cc2)nc1C (stereo not drawn)	–
50.1 µM	35.5 µM	O=C(OCc1cn2ccccc2n1)c1c2c(nc3ccccc13)CCC2	–
11.2 µM	7.94 µM	CCOC(=O)CN(C(=O)COC(=O)Cc1c[nH]c2ccccc12)c1ccc(F)cc1	–
